Data on 23 compounds can be found in PubChem BioAssay AID328 (DTP/NCI, 2004).

The test system of this assay is BDF1 mice, P388 leukemia ip, median survival T/C. As to the kind of experiment: NCI In Vivo Anticancer Drug Screen. Data for tumor model P388 Leukemia (intraperitoneal) in B6D2F1 (BDF1) mice. The following applies: endpoint: median survival time, higher = longer survival. The method in brief:
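Antitumour effect was judged in vivo: survival in drug-treated mice, normalised to that of vehicle-dosed controls, gives the reported T/C.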

Setting [1] is: dose: 25.0 mg/kg/injection, schedule: Q01DX009 (ip), vehicle: saline with Tween-80.
Setting [2] is: dose: 100.0 mg/kg/injection, schedule: Q01DX009 (ip), vehicle: saline with Tween-80.
Where [3] appears, read: dose: 50.0 mg/kg/injection, schedule: Q01DX009 (ip), vehicle: saline with Tween-80.
Setting [4] is: dose: 200.0 mg/kg/injection, schedule: Q01DX009 (ip), vehicle: saline with Tween-80.
The mark [5] stands for this setting: dose: 50.0 mg/kg/injection, schedule: Q04DX003 (ip), vehicle: saline with Tween-80.
[6] abbreviates: dose: 25.0 mg/kg/injection, schedule: Q01DX009 (ip), vehicle: saline.
Setting [7] is: dose: 50.0 mg/kg/injection, schedule: Q04DX003 (ip), vehicle: saline.
Where [8] appears, read: dose: 12.5 mg/kg/injection, schedule: Q01DX009 (ip), vehicle: saline with Tween-80.
Where [9] appears, read: dose: 50.0 mg/kg/injection, schedule: Q01DX009 (ip), vehicle: saline.
The mark [10] stands for this setting: dose: 100.0 mg/kg/injection, schedule: Q04DX003 (ip), vehicle: saline.
The mark [11] stands for this setting: dose: 100.0 mg/kg/injection, schedule: Q04DX003 (ip), vehicle: saline with Tween-80.
The mark [12] stands for this setting: dose: 200.0 mg/kg/injection, schedule: Q04DX003 (ip), vehicle: saline with Tween-80.
Where [13] appears, read: dose: 400.0 mg/kg/injection, schedule: Q04DX003 (ip), vehicle: saline with Tween-80.

The structures appear in SMILES notation. “And” between values parts separate entries of the source, which are not always exact repeats. Equal values may be shown once. Inconclusive results and toxic doses are left out.

As to `ClCCN(CCCl)CCCN1c2ccccc2Sc2ccc(Cl)cc21`, the T/C was 97 % of control (dose: 3.12 mg/kg/injection, schedule: Q04DX003 (ip), vehicle: saline); 154 % of control (dose: 6.25 mg/kg/injection, schedule: Q04DX003 (ip), vehicle: saline with Tween-80); 97 % of control (dose: 6.25 mg/kg/injection, schedule: Q04DX003 (ip), vehicle: saline); 94 % of control (dose: 12.5 mg/kg/injection, schedule: Q04DX003 (ip), vehicle: saline).

Consider `COc1ccc(OC)c(NC=O)c1`, for which the T/C under setting [1] was 97 % of control and the T/C under setting [2] is 97 % of control.

Regarding `CCOC(=O)CCc1nn(C)c2ccc(CC)cc2c1=O`, the T/C runs as follows: under setting [3], 101 % of control; under setting [2], 92 % of control; under setting [4], 90 % of control.

Turning to `Cc1nc2ccccc2c(=O)n1/N=C/c1ccco1`, the T/C reads like this: under setting [3], 107 % of control; under setting [2], 90 % of control.

As to `C=CS(=O)(=O)Cc1ccccc1`, the T/C (dose: 25.0 mg/kg/injection, schedule: Q04DX003 (ip), vehicle: saline with Tween-80) was 104 % of control and the T/C under setting [5] was 93 % of control.

As for `COc1c2occc2c(CC(O)C(C)(C)O)c2ccc(=O)oc12` (centres undefined), the T/C runs as follows: (dose: 43.8 mg/kg/injection, schedule: Q01DX009 (ip), vehicle: Klucel (hydroxypropylcellulose) (HPC)) 103 % of control; (dose: 87.5 mg/kg/injection, schedule: Q01DX009 (ip), vehicle: Klucel (hydroxypropylcellulose) (HPC)) 92 % of control; (dose: 175.0 mg/kg/injection, schedule: Q01DX009 (ip), vehicle: Klucel (hydroxypropylcellulose) (HPC)) 90 % of control.

Consider `N.N.N.NC(Cc1cnc[nH]1)C(=O)[O-].O=[N+]([O-])[O-].[Co+3]` (centres undefined), for which the T/C is 89 % of control (dose: 2.0 mg/kg/injection, schedule: Q01DX009 (ip), vehicle: saline); 95 % of control and 110 % of control and 113 % of control (dose: 4.0 mg/kg/injection, schedule: Q01DX009 (ip), vehicle: saline); 100 % of control and 110 % of control (dose: 8.0 mg/kg/injection, schedule: Q01DX009 (ip), vehicle: saline); 120 % of control (dose: 20.0 mg/kg/injection, schedule: Q01DX009 (ip), vehicle: saline); 90 % of control under setting [6].

With `CC[n+]1ccc(Nc2ccc(NC(=O)c3ccc(Nc4cc[n+](CC)c5ccc([N+](=O)[O-])cc45)cc3)cc2)cc1`, the T/C is 111 % of control (dose: 0.44 mg/kg/injection, schedule: Q04DX003 (ip), vehicle: saline); 116 % of control (dose: 0.66 mg/kg/injection, schedule: Q04DX003 (ip), vehicle: saline); 100 % of control (dose: 1.0 mg/kg/injection, schedule: Q04DX003 (ip), vehicle: saline); 110 % of control (dose: 1.5 mg/kg/injection, schedule: Q04DX003 (ip), vehicle: saline); 150 % of control (dose: 4.0 mg/kg/injection, schedule: Q04DX003 (ip), vehicle: saline); 150 % of control (dose: 6.0 mg/kg/injection, schedule: Q04DX003 (ip), vehicle: saline). In addition, the T/C is, setting by setting: (dose: 22.0 mg/kg/injection, schedule: Q04DX003 (ip), vehicle: saline) 152 % of control; (dose: 33.0 mg/kg/injection, schedule: Q04DX003 (ip), vehicle: saline) 180 % of control; under setting [7], 186 % of control.

With `COc1cc2ccccc2c(-c2c(O)c(OC)cc3ccccc23)c1O`, the T/C by setting is: under setting [3], 91 % of control; under setting [2], 86 % of control; under setting [4], 88 % of control.

On to `COc1cc(NCCCCCCCNC(C)C)c2nccc(C)c2c1`, for which the T/C is, setting by setting: (dose: 3.13 mg/kg/injection, schedule: Q01DX009 (ip), vehicle: saline) 105 % of control; (dose: 6.25 mg/kg/injection, schedule: Q01DX009 (ip), vehicle: saline) 98 % of control and 115 % of control; under setting [6], 109 % of control and 116 % of control.

As for `CC1(c2cccc([N+](=O)[O-])c2)OCCO1`, the T/C reads like this: (dose: 100.0 mg/kg/injection, schedule: Q01DX009 (ip), vehicle: other) 109 % of control; (dose: 100.0 mg/kg/injection, schedule: Q04DX003 (ip), vehicle: other) 100 % of control; (dose: 200.0 mg/kg/injection, schedule: Q01DX009 (ip), vehicle: other) 100 % of control; (dose: 200.0 mg/kg/injection, schedule: Q04DX003 (ip), vehicle: other) 95 % of control; (dose: 400.0 mg/kg/injection, schedule: Q01DX009 (ip), vehicle: other) 100 % of control; (dose: 400.0 mg/kg/injection, schedule: Q04DX003 (ip), vehicle: other) 91 % of control.

As for `O=C(Nc1ccc(-c2cn3ccccc3n2)cc1)c1cc(Br)ccc1O`, the T/C was 100 % of control under setting [8], 91 % of control under setting [1] and 107 % of control under setting [3].

For `Cc1c(C)c2c(c(C)c1O)CCC(C)(CCCC(C)CCCC(C)CCCC(C)C)O2` (centres undefined), the T/C is, setting by setting: (dose: 30.0 IU/animal/injection, schedule: Q04DX003 (ip), vehicle: olive oil, sesame oil, peanut oil) 100 % of control; (dose: 85.0 IU/animal/injection, schedule: Q04DX003 (ip), vehicle: olive oil, sesame oil, peanut oil) 100 % of control.

For `O=[N+]([O-])c1ccc(S(=O)c2ccc([N+](=O)[O-])c3nonc23)cc1` (centres undefined), the T/C is 90 % of control (dose: 15.0 mg/kg/injection, schedule: Q01DX009 (ip), vehicle: saline with Tween-80) and 97 % of control (dose: 30.0 mg/kg/injection, schedule: Q01DX009 (ip), vehicle: saline with Tween-80).

Consider `CCOC(=O)C(C(=O)OCC)C1c2ccccc2C(=O)N(CCN(C)C)c2ccccc21` (centres undefined), for which the T/C is 109 % of control under setting [6]; 95 % of control under setting [9]; 91 % of control under setting [7]; 104 % of control (dose: 100.0 mg/kg/injection, schedule: Q01DX009 (ip), vehicle: saline); 87 % of control under setting [10].

`Cc1cccc2c1C(=O)OC2(C)c1cccc2ccccc12` (centres undefined): the T/C by setting is: under setting [5], 99 % of control; under setting [11], 96 % of control; under setting [12], 118 % of control; under setting [13], 95 % of control.

Take `C[C@]12CC[C@H](O)C[C@@H]1CC[C@@H]1[C@@H]2C(=O)C[C@@]2(C)[C@H]1CC[C@]2(O)C(=O)CBr`: the T/C runs as follows: under setting [8], 114 % of control; (dose: 50.0 mg/kg/injection, schedule: Q01DX009 (ip), vehicle: Klucel (hydroxypropylcellulose) (HPC)) 113 % of control; (dose: 100.0 mg/kg/injection, schedule: Q01DX009 (ip), vehicle: Klucel (hydroxypropylcellulose) (HPC)) 109 % of control; (dose: 100.0 mg/kg/injection, schedule: Q04DX003 (ip), vehicle: Klucel (hydroxypropylcellulose) (HPC)) 100 % of control; under setting [4], 118 % of control; (dose: 200.0 mg/kg/injection, schedule: Q04DX003 (ip), vehicle: Klucel (hydroxypropylcellulose) (HPC)) 109 % of control. In addition, the T/C (dose: 400.0 mg/kg/injection, schedule: Q04DX003 (ip), vehicle: Klucel (hydroxypropylcellulose) (HPC)) is 113 % of control.

Take `N/C(=N/N=C/c1ccncc1)N[N+](=O)[O-]`: the T/C under setting [9] is 90 % of control.

`C/C=C/C=C/NC(=O)Oc1ccccc1`: the T/C is, setting by setting: under setting [11], 91 % of control; under setting [12], 94 % of control; under setting [13], 116 % of control.

Take `O=C(Nc1ccc(Cl)c(Cl)c1)Nc1cc(Cl)ccc1Sc1ccc(Cl)cc1S(=O)(=O)O`: the T/C under setting [1] was 109 % of control, the T/C under setting [3] was 95 % of control and the T/C under setting [2] was 90 % of control.

Turning to `CCN1c2ccccc2CC(CCN(C(C)C)C(C)C)(C(N)=O)c2ccccc21` (centres undefined), the T/C (dose: 100.0 mg/kg/injection, schedule: Q04DX002 (ip), vehicle: saline with Tween-80) is 108 % of control.

Take `O=S(=O)(O)c1cc(O)c2cc(Nc3ccccc3)ccc2c1`: the T/C reads like this: under setting [7], 104 % of control; under setting [10], 113 % of control; (dose: 200.0 mg/kg/injection, schedule: Q04DX003 (ip), vehicle: saline) 109 % of control.

For the compound `Cc1cnc2ncn(Cc3c[nH]c(=O)[nH]c3=O)c(=O)c2c1`, the T/C runs as follows: (dose: 12.5 mg/kg/injection, schedule: Q01DX001 (ip), vehicle: saline with Tween-80) 105 % of control and 112 % of control; (dose: 25.0 mg/kg/injection, schedule: Q01DX001 (ip), vehicle: saline with Tween-80) 104 % of control and 109 % of control; (dose: 50.0 mg/kg/injection, schedule: Q01DX001 (ip), vehicle: saline with Tween-80) 102 % of control.
